The target in assay [1] is Phosphatidylinositol 4,5-bisphosphate 3-kinase catalytic subunit gamma isoform (Homo sapiens, UniProt P48736). In words: Inhibition of PI3Kgamma (unknown origin).
Assay [2] deals with Phosphatidylinositol 4,5-bisphosphate 3-kinase catalytic subunit beta isoform (Homo sapiens, UniProt P42338). In words: Inhibition of PI3Kbeta (unknown origin).
A further assay deals with Histone deacetylase 1 (Homo sapiens, UniProt Q13547). In words: Inhibition of HDAC1 (unknown origin).
Histone deacetylase 1, sequence (Q13547 whole entry, canonical isoform): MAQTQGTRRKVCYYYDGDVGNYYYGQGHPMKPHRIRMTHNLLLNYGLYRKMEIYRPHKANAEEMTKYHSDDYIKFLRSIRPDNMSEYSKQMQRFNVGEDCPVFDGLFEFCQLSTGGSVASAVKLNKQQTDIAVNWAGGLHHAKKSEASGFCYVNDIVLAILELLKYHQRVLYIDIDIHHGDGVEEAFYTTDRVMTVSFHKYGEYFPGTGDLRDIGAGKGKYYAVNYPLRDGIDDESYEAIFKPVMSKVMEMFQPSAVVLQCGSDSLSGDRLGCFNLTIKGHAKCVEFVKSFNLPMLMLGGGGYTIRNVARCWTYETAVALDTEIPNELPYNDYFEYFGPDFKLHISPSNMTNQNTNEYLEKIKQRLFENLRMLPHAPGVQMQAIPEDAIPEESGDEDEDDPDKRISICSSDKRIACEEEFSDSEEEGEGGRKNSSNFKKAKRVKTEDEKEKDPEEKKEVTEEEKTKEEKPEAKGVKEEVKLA
For assay [3], the target named is T1, Phosphatidylinositol 4,5-bisphosphate 3-kinase catalytic subunit delta isoform (Homo sapiens, UniProt O00329).
T1 sequence (O00329 whole entry): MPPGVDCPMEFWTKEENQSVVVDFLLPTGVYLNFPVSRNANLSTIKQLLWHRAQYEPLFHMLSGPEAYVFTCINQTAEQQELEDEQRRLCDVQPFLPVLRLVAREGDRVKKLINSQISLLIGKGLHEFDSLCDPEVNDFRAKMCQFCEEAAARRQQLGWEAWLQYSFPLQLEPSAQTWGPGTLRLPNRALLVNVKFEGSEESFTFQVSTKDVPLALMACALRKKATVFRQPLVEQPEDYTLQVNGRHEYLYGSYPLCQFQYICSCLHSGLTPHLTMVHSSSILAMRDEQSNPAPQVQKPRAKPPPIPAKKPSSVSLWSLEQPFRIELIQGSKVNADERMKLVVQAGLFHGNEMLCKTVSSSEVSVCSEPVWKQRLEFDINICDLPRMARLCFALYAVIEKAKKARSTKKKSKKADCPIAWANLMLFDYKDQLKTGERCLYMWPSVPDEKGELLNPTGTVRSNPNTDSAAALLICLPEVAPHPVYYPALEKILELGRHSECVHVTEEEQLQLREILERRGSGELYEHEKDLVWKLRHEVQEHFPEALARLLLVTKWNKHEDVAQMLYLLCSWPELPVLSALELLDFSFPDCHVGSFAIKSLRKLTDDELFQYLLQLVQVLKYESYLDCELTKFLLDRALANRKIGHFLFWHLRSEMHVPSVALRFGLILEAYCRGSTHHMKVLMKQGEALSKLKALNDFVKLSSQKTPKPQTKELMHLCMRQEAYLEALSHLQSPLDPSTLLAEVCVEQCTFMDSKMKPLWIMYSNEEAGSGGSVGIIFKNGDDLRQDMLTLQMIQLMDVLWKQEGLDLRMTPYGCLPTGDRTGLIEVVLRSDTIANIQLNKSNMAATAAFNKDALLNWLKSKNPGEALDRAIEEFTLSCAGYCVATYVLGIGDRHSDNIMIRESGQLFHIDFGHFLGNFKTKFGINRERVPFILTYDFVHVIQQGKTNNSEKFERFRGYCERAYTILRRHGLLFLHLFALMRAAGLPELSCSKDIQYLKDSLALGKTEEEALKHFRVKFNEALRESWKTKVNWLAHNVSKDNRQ
In words: Inhibition of PI3Kdelta (unknown origin).

In a further assay the target is T2, Histone deacetylase 11 (Homo sapiens, UniProt Q96DB2).
T2 sequence (Q96DB2 whole entry): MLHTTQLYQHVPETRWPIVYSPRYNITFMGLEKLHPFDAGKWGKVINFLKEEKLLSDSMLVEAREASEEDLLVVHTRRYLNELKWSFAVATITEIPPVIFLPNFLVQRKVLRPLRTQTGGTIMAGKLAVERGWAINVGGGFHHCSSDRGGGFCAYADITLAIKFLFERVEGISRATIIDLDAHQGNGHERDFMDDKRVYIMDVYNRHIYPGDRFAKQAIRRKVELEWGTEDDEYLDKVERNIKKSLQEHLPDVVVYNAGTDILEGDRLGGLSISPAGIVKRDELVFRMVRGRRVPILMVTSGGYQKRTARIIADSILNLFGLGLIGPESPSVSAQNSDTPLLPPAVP
In words: Inhibition of HDAC11 (unknown origin).

In a further assay the target is T3, Histone deacetylase 8 (Homo sapiens, UniProt Q9BY41).
T3 sequence (Q9BY41 whole entry): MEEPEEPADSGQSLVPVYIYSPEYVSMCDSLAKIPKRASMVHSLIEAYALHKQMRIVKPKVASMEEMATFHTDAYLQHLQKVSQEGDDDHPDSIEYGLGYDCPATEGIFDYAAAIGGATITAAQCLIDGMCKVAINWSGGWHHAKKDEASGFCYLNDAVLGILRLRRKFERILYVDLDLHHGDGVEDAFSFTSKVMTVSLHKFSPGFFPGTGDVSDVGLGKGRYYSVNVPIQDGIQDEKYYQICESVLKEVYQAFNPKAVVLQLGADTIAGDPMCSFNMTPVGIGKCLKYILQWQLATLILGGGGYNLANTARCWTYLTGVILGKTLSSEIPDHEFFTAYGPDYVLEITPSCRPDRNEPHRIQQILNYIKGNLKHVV
In words: Inhibition of HDAC8 (unknown origin).

The next assay has as its system MCF7. In words: Antiproliferative activity against human MCF7 cells.
The next assay concerns L-363. In words: Antiproliferative activity against human L-363 cells.
Another assay has as its system T47D. In words: Antiproliferative activity against human T47D cells.

Phosphatidylinositol 4,5-bisphosphate 3-kinase catalytic subunit gamma isoform, sequence (P48736 whole entry, canonical isoform): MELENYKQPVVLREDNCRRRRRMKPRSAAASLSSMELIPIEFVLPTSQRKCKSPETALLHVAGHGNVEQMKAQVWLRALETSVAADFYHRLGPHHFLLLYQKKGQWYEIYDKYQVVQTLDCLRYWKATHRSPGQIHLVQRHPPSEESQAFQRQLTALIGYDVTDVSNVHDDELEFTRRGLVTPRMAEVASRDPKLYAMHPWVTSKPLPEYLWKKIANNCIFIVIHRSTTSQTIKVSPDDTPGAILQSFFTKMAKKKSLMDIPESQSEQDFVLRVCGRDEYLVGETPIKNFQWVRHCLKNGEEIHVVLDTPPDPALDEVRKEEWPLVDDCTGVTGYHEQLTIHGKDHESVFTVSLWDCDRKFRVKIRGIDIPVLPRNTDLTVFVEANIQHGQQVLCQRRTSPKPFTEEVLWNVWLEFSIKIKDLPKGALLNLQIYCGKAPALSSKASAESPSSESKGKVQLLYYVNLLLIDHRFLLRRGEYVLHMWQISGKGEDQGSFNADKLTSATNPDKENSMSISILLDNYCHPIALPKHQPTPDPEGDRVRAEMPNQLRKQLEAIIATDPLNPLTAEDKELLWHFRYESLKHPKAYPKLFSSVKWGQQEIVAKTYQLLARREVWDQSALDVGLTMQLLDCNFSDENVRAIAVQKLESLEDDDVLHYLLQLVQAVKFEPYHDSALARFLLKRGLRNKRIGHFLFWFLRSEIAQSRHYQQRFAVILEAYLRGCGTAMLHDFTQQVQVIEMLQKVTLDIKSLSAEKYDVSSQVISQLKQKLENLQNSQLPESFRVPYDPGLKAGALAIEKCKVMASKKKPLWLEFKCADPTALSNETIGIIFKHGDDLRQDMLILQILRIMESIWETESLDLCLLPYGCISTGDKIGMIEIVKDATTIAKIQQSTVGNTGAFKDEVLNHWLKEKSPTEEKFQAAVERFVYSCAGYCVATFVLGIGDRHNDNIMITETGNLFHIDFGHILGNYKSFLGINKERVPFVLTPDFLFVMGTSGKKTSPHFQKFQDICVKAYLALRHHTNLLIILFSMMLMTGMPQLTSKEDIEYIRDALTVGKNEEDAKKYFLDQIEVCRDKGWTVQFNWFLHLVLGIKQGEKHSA
Phosphatidylinositol 4,5-bisphosphate 3-kinase catalytic subunit beta isoform, sequence (P42338 whole entry, canonical isoform): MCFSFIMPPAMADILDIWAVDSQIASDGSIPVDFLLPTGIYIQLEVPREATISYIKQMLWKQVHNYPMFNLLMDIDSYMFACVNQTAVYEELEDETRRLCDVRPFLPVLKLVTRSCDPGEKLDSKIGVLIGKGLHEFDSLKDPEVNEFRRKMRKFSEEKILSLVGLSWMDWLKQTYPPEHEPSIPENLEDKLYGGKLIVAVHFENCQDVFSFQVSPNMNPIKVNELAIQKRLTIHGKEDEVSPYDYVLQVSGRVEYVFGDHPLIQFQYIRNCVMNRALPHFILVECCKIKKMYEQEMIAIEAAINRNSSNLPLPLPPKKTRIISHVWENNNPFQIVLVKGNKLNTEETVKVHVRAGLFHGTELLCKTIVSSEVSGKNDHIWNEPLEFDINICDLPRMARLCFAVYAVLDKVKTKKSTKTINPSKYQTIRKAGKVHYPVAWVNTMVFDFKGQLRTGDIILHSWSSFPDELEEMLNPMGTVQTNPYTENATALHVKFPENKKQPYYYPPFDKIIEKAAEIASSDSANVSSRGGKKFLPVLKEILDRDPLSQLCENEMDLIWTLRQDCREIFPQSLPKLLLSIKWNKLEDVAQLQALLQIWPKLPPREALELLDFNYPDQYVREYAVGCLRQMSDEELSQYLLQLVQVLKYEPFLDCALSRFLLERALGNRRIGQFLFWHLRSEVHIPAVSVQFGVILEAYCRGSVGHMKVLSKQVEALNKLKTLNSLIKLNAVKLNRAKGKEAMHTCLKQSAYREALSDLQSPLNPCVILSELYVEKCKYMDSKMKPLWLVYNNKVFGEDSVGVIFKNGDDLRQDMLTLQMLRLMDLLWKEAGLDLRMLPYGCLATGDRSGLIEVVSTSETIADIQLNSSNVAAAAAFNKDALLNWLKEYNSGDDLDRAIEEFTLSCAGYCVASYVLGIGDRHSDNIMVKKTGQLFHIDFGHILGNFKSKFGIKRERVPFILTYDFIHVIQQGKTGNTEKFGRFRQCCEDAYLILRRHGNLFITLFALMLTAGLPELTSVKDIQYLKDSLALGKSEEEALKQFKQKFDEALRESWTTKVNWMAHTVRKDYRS

Consider `Cc1nc(NC(=O)N2C[C@H](NC(=O)c3ccc(C(=O)NO)cn3)C[C@H]2C(N)=O)sc1-c1ccnc(C(C)(C)C(F)(F)F)c1`, for which the IC50 in assay [1] is 318 nM; in [2] it was more than 1000 nM; against Histone deacetylase 1, 471 nM; in assay [3] it was 214 nM; at Histone deacetylase 11, more than 2000 nM; on Histone deacetylase 8 it was more than 2000 nM.
As for `Cc1nc(NC(=O)N2C[C@H](NS(=O)(=O)Cc3ccc(C(=O)NO)cc3)C[C@H]2C(N)=O)sc1-c1ccnc(C(C)(C)C(F)(F)F)c1`, the IC50 is 285 nM in assay [1]; 880 nM in [2]; more than 2000 nM against Histone deacetylase 1; 42 nM in [3]; 586 nM on Histone deacetylase 11; more than 2000 nM against Histone deacetylase 8.
`Cc1nc(NC(=O)N2CCC[C@H]2C(N)=O)sc1-c1ccnc(C(C)(C)C(F)(F)F)c1` [ALPELISIB]: the figures for the IC50 in the assay with MCF7, with L-363 and in the assay with T47D were 250 nM, 260 nM and 2300 nM, respectively.
Molecule `O=C(CCCCCCC(=O)Nc1ccccc1)NO` [VORINOSTAT] had an IC50 in the assay on MCF7 of 3560 nM.

Values taken from ChEMBL document CHEMBL5365452, “Discovery of (S)-N1-(thiazol-2-yl) pyrrolidine-1,2-dicarboxamide derivatives targeting PI3Ka/HDAC6 for the treatment of cancer” (Bioorg Med Chem Lett, 2023).
